Experimental findings from ChEMBL document CHEMBL5634187, “Identification of Selective Imidazopyridine CSF1R Inhibitors” (ACS Med Chem Lett, 2024) are described below.

SMILES strings stand for the structures. pIC50: −log10 of the molar value. In brackets after ≈: the same amount, converted by molar mass.

Series [1] concerns the target CYP450 (isoform not stated) (Homo sapiens, UniProt P04798+P05177+P05181+P08684+P10632+P10635+P11509+P11712+P13584+P20813+P20815+P20853+P24462+P24903+P33260+P33261+P51589+P78329+P98187+Q02928+Q08477+Q16678+Q16696+Q5TCH4+Q6VVX0+Q7Z449+Q8TAV3+Q96SQ9+Q9HB55). As to the kind of experiment: in vitro.
Series [2] can be described thus: in vitro. The settings on record: rat, liver microsomes. (Liver microsomes are a subcellular fraction often used to study metabolism.)
Description: Intrinsic clearance in rat liver microsomes
Series [3] can be described thus: physchem. The note with it: octanol/water.
Description: Lipophilicity, logD of the compound
Series [4] in a line: in vitro. The settings on record: human, Caco-2.
Description: Permeability in human Caco-2 cells
The nature of series [5]: physchem. The note with it: buffer, pH 7.4.
Description: Solubility of compound at pH 7.4
A short description of series [6]: in vitro. The note with it: human, liver microsomes.
Description: Intrinsic clearance in human liver microsomes
Series [7] addresses Mast/stem cell growth factor receptor Kit (Homo sapiens, UniProt P10721).
Description: Inhibition of c-Kit (unknown origin)
Series [8] is described as follows: in vivo. The note with it: Sprague-Dawley, rat, po, 3 mg/kg.
A further series has as its target Cytochrome P450 3A4 (Homo sapiens, UniProt P08684). The series is described as follows: Inhibition of CYP450 3A4 (unknown origin) using midazolam as substrate. Format: ADME.
A short description of series [9]: in vivo. The settings on record: Sprague-Dawley, rat, iv, 1 mg/kg.
Description: Clearance in Sprague-Dawley rat at 1 mg/kg, iv
The nature of series [10]: in vivo. The settings on record: Sprague-Dawley, rat, po, 3 mg/kg. The source holds these as a separate data set.
Description: Half-life in Sprague-Dawley rat at 3 mg/kg, po
Series [11] is described as follows: in vivo. The settings on record: Sprague-Dawley, rat, iv, 1 mg/kg. The source holds these as a separate data set.
Series [12] can be described thus: in vivo. The note with it: Sprague-Dawley, rat, iv, 1 mg/kg. The source holds these as a separate data set.
Description: Half-life in Sprague-Dawley rat at 1 mg/kg, iv
Series [13] in a line: in vivo. The settings on record: Sprague-Dawley, rat, po, 3 mg/kg. This is another data set of the same source.
Series [14] can be described thus: in vivo. The settings on record: Sprague-Dawley, rat, iv, 1 mg/kg. The source holds these as a separate data set.
Series [15] can be described thus: in vivo. The settings on record: Sprague-Dawley, rat, po, 3 mg/kg. The source holds these as a separate data set.

Chain of Mast/stem cell growth factor receptor Kit (P10721 whole entry): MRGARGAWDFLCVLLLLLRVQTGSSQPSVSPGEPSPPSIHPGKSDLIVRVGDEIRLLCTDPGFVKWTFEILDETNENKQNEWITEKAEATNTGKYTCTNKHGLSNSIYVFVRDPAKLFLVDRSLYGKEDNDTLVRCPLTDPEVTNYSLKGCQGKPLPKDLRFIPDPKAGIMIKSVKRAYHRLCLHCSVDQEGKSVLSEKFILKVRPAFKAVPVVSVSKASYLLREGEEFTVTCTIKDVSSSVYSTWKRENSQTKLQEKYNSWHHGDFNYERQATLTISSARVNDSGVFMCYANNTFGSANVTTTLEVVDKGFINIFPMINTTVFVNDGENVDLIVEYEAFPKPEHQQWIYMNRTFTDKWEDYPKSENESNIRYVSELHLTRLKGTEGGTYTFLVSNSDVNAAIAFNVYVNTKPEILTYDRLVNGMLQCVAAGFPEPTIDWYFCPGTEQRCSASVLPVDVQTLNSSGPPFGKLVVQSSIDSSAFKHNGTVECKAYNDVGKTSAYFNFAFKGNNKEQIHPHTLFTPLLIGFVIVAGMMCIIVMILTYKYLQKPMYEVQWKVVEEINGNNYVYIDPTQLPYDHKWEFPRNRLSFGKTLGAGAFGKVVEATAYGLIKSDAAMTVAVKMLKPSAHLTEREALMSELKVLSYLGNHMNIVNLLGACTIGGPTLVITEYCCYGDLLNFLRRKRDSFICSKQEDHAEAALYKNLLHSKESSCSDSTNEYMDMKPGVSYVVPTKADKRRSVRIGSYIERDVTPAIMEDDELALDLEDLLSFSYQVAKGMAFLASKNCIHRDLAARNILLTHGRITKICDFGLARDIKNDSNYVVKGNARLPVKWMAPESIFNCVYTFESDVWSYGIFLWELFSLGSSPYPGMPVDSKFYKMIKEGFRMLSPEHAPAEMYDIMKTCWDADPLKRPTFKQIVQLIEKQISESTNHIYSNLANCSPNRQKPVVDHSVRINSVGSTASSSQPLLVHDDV
Chain of Cytochrome P450 3A4 (P08684 whole entry): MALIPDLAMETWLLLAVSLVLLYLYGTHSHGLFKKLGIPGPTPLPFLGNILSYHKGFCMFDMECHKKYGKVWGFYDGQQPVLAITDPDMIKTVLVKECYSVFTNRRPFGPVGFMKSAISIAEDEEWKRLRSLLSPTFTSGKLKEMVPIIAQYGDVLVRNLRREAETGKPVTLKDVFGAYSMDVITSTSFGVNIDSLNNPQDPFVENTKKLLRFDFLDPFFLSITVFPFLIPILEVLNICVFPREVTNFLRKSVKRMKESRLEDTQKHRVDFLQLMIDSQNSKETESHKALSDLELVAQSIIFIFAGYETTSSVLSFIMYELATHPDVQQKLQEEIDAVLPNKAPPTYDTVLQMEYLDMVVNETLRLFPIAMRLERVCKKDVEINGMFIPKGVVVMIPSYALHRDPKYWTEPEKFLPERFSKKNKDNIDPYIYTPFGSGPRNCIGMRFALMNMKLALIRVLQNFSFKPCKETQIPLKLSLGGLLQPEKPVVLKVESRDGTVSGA

For `COc1ccc(COc2ccc(Cn3cnc4cc(C(=O)N(C)C)cnc43)cc2OC)cn1`, in series [1], the pIC50 – broadly, the IC50 on a negative log10 scale, so that one unit is a factor of ten – was < 5.00.

As for `COc1ccc(COc2ccc(Cn3cnc4cc(N5CCN(C)CC5)cnc43)cc2OC)cn1`, in series [1], the pIC50 was < 5.00. For the same molecule, the intrinsic clearance (microsomal CLint) (in general, the capacity of the preparation to metabolise the compound, expressed as a volume cleared per time) in the series “in vitro [2]” is 130 µL/min/mg; in “in vitro [6]” it was 33 µL/min/mg. Besides, the logD (commonly lipophilicity at a set pH, counting ionised and neutral species) in the series “physchem [3]” is 2.3. Further, the Papp (commonly the rate of passage across a membrane or cell layer, normalised by area and donor concentration) in “in vitro [4]” stood at 29 ×10⁻⁶ cm/s. The solubility (in general, the concentration that dissolves in the medium under given conditions) in the series “physchem [5]” was > 450 µg/mL.

With `Cc1nc(-c2cnc(NC(C)C)n(C)c2=O)ccc1Oc1ccnc(-c2cnn(C)c2)c1` [VIMSELTINIB], the pIC50 in series [7] was 6.32.

`COc1ccc(COc2ccc(Cc3cnc(N)nc3N)cc2OC)cc1` [GW632580X]: the negative-log IC50 (pIC50) in [1] is < 5.00. In the series “physchem [3]”, this molecule displayed a log distribution coefficient (logD) of 2.6. In the series “in vitro [4]”, this molecule had an apparent permeability coefficient (Papp) of 11 ×10⁻⁶ cm/s. This molecule also registered a solubility in the series “physchem [5]” of 1.2 µg/mL (≈ 3.27 µM).

Consider `COc1ccc(COc2ccc(Cn3cnc4cc(OC5CCNCC5)cnc43)cc2OC)cn1`, for which, in [1], the pIC50 was < 5.00.

Take `COc1ccc(COc2ccc(Cn3cnc4cc(C#CC5CCNC5)cnc43)cc2OC)cn1` (centres undefined): the intrinsic clearance (microsomal CLint) in the series “in vitro [2]” came to 19 µL/min/mg; in “in vitro [6]” it was 16 µL/min/mg. The bioavailability (usually dose-corrected exposure relative to a reference, in per cent) in the series “in vivo [8]” came out at 36%. Moreover, the logD in “physchem [3]” was 1.5. Moreover, the pIC50 on Cytochrome P450 3A4 was 5.18. For the same molecule, in “in vivo [9]”, the clearance (commonly the volume of plasma or blood freed of the substance per unit of time) worked out at 31 mL/min/kg. In addition, the half-life – broadly, the time needed for the level to fall by half in the phase considered – in “in vivo [10]” is 1.7 h; in the series “in vivo [12]” it was 2 h. In “in vitro [4]”, this molecule displayed an apparent permeability coefficient (Papp) of 5.1 ×10⁻⁶ cm/s. In the series “in vivo [11]”, the Vd (usually a proportionality between amount in the body and measured concentration, not a real space) amounted to 4.89 L/kg. The molecule further had a solubility in “physchem [5]” of 57 µg/mL (≈ 121 µM). Further, in the series “in vivo [13]”, the highest concentration (Cmax) (usually the maximum level reached in the sampled fluid or tissue) is 108 ng/mL. The total exposure AUC(0-inf) (usually total exposure, with the tail of the curve extrapolated) amounted to 542 ng·h/mL in the series “in vivo [14]” and 625 ng·h/mL in the series “in vivo [15]”.

As for `COc1ccc(COc2ccc(Cn3cnc4cc(C(=O)N5CC6(COC6)C5)cnc43)cc2OC)cn1`, the negative logarithm of the IC50 (pIC50) in series [1] is < 5.00.

Take `COc1ccc(COc2ccc(Cn3cnc4cc(-n5cc(C(C)(C)N)nn5)cnc43)cc2OC)cn1`: the pIC50 in [1] was < 5.00. In addition, the intrinsic clearance (microsomal CLint) was < 7.2 µL/min/mg in the series “in vitro [2]” and 21 µL/min/mg in the series “in vitro [6]”. For the same molecule, the logD in “physchem [3]” is 1.6. Also, the Papp in “in vitro [4]” turned out to be 2 ×10⁻⁶ cm/s. This molecule also gave a solubility in “physchem [5]” of 13 µg/mL (≈ 26 µM).
